From patent US20240116985A1, “STAPLED PEPTIDES AND METHODS THEREOF” (priority 2020, published 2024)
Where two headings read alike, the source gives them in different places.

Assays:
CHI Log D procedure = type: physicochemical; conditions: for chromatographic logD: pH 7.4, CHI Log D; for CHI Log D: pH 7.4
[1] = molecular target: T1, full-length beta-Catenin (Uniprot ID P35222) (Homo sapiens, UniProt P35222); assay: Fluorescence polarization IC50 (beta-catenin / 5FAM-TCF4 10-53 competition); type: binding
T1 construct: 10 nM full-length beta-Catenin (Uniprot ID P35222)
T1 sequence (P35222 1-781): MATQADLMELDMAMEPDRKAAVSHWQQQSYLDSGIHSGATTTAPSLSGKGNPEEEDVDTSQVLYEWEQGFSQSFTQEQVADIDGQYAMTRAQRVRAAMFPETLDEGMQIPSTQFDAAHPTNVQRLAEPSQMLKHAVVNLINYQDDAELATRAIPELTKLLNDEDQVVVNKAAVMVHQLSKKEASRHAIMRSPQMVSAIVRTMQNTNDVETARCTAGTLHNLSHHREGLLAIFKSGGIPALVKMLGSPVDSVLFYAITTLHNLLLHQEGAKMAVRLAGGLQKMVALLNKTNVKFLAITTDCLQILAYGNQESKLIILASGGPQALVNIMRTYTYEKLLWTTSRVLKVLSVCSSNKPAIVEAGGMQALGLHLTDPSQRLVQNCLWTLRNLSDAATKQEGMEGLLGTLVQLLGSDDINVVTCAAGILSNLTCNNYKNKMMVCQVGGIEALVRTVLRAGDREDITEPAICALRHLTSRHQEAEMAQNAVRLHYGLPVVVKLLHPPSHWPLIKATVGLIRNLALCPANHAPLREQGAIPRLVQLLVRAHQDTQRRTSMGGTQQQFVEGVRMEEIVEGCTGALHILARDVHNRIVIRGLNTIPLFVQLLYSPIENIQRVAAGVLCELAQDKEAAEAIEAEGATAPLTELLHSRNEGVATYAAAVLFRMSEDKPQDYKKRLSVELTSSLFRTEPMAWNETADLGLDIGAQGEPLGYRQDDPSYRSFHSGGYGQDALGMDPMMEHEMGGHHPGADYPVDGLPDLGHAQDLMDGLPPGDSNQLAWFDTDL

[2] = fluorescence polarization, read-out: beta-Catenin FP IC50

Row | SMILES | chromatographic logD (CHI Log D procedure) | IC50 [1, 2] [nM] | CHI Log D (CHI Log D procedure) | IC50 ([1]; read-out: FP EC50) [nM]
1 | CC(=O)N1CCC[C@]12CC=CCCCC1(CCCC=CCOC(=O)N(C)CCC[C@@](C)(C(=O)N[C@@H](Cc3cccc(F)c3)C(=O)N[C@@H](Cc3csc4ccccc34)C(=O)N[C@@H](CCC(N)=O)C(N)=O)NC(=O)[C@H](CCC(N)=O)NC(=O)[C@H](Cc3cccc(C)c3)NC(=O)[C@H](C)NC(=O)[C@H](C)NC(=O)[C@H](CN(CC(=O)O)CC(F)(F)F)NC(=O)[C@H](CC(=O)O)NC1=O)NC(=O)[C@H](C)NC(=O)[C@H](CC(=O)O)NC2=O (stereo partly drawn) [I-405, Ac-PL3-Asp-Ala-B5-Asp-TfeGA-Ala-Ala-3MeF-Gln-SeN-3FF-BztA-Gln-NH2] | 1.72 | 3820 | – | –
2 | CC(=O)N1CCC[C@]12CC=CCCCC1(CCCC=CCCCCCC[C@@](C)(C(=O)N[C@@H](Cc3ccccc3)C(=O)N[C@@H](Cc3csc4ccccc34)C(=O)N[C@@H](CCC(N)=O)C(N)=O)NC(=O)[C@H](CC(N)=O)NC(=O)[C@H](Cc3ccccc3F)NC(=O)[C@H](C)NC(=O)[C@H](C)NC(=O)[C@H](CCC(=O)O)NC(=O)[C@H](CC(=O)O)NC1=O)NC(=O)[C@H](C)NC(=O)[C@H](CC(=O)O)NC2=O (stereo partly drawn) [I-453, Ac-PL3-Asp-Ala-B5-Asp-Glu-Ala-Ala-2FF-Asn-S8-Phe-BztA-Gln-NH2] | 2.01 | 1550 | – | –
3 | CC(=O)N1CCC[C@]12CC=CCCCC1(CCCC=CCCCCCC[C@@](C)(C(=O)N[C@@H](Cc3ccccc3)C(=O)N[C@@H](Cc3csc4ccccc34)C(=O)N[C@@H](CCC(N)=O)C(N)=O)NC(=O)[C@H](CC(N)=O)NC(=O)[C@H](Cc3ccccc3C)NC(=O)[C@H](C)NC(=O)[C@H](C)NC(=O)[C@H](CCC(=O)O)NC(=O)[C@H](CC(=O)O)NC1=O)NC(=O)[C@H](C)NC(=O)[C@H](CC(=O)O)NC2=O (stereo partly drawn) [I-456, Ac-PL3-Asp-Ala-B5-Asp-Glu-Ala-Ala-2MeF-Asn-S8-Phe-BztA-Gln-NH2] | – | 2170 | 2.0045 | 2170
4 | CC(=O)N1CCC[C@]12CC=CCCCC1(CCCC=CCCCCCC[C@@](C)(C(=O)N[C@@H](Cc3ccccc3)C(=O)N[C@@H](Cc3csc4ccccc34)C(=O)N[C@@H](CCC(N)=O)C(N)=O)NC(=O)[C@H](CC(N)=O)NC(=O)[C@H](Cc3ccccc3C)NC(=O)[C@H](C)NC(=O)[C@H](C)NC(=O)[C@H](CCC(=O)O)NC(=O)[C@H](CC(=O)O)NC1=O)NC(=O)[C@H](C)NC(=O)[C@H](CC(=O)O)NC2=O (stereo partly drawn) [I-457, Ac-PL3-Asp-Ala-B5-Asp-Glu-Ala-Ala-2MeF-Asn-S8-Phe-BztA-Gln-NH2] | – | 1440 | 2.0242 | 1440
5 | CC(=O)N1CCC[C@]12CC=CCCCC1(CCCC=CCCCCCC[C@@](C)(C(=O)N[C@@H](Cc3ccccc3)C(=O)N[C@@H](Cc3csc4ccccc34)C(=O)N[C@@H](CCC(N)=O)C(N)=O)NC(=O)[C@H](CC(N)=O)NC(=O)[C@H](Cc3ccc(C)cc3)NC(=O)[C@H](C)NC(=O)[C@H](C)NC(=O)[C@H](CCC(=O)O)NC(=O)[C@H](CC(=O)O)NC1=O)NC(=O)[C@H](C)NC(=O)[C@H](CC(=O)O)NC2=O (stereo partly drawn) [I-459, Ac-PL3-Asp-Ala-B5-Asp-Glu-Ala-Ala-4MeF-Asn-S8-Phe-BztA-Gln-NH2] | 2.06 | 183 | – | –
6 | CC(=O)N1CCC[C@]12CC=CCCCC1(CCCC=CCCCCCC[C@@](C)(C(=O)N[C@@H](Cc3ccccc3)C(=O)N[C@@H](Cc3csc4ccccc34)C(=O)N[C@@H](CCC(N)=O)C(N)=O)NC(=O)[C@H](CC(N)=O)NC(=O)[C@H](Cc3ccco3)NC(=O)[C@H](C)NC(=O)[C@H](C)NC(=O)[C@H](CCC(=O)O)NC(=O)[C@H](CC(=O)O)NC1=O)NC(=O)[C@H](C)NC(=O)[C@H](CC(=O)O)NC2=O (stereo partly drawn) [I-460, Ac-PL3-Asp-Ala-B5-Asp-Glu-Ala-Ala-2FurA-Asn-S8-Phe-BztA-Gln-NH2] | 1.99 | 195 | – | –

Now those with a lower IC50 [1, 2], led by results:

Row | chromatographic logD (CHI Log D procedure) | IC50 [1, 2] [nM] | CHI Log D (CHI Log D procedure) | IC50 ([1]; read-out: FP EC50) [nM] | SMILES
7 | 2.65 | 92 | – | – | CC[C@H](C)[C@@H]1NC(=O)[C@H](CC(=O)O)NC(=O)[C@]2(CC=CCCCC3(CCCC=CCCCCCC[C@@](C)(C(=O)N[C@@H](Cc4cccc(F)c4)C(=O)N[C@@H](Cc4csc5ccccc45)C(=O)N[C@@H](CCC(N)=O)C(N)=O)NC(=O)[C@H](CCC(N)=O)NC(=O)[C@H](Cc4cccs4)NC(=O)[C@H](C)NC(=O)[C@H](C)NC(=O)[C@H](CCC(=O)O)NC(=O)[C@H](CC(=O)O)NC3=O)NC1=O)CCCN2C(C)=O (stereo partly drawn) [I-412, Ac-PL3-Asp-Ile-B5-Asp-Glu-Ala-Ala-2Thi-Gln-S8-3FF-BztA-Gln-NH2]
8 | – | 23 | 2.114 | 23 | CC(=O)N1CCC[C@]12CC=CCCCC1(CCCC=CCCCCCC[C@@](C)(C(=O)N[C@@H](Cc3ccccc3)C(=O)N[C@@H](Cc3csc4ccccc34)C(=O)N[C@@H](Cc3c[nH]cn3)C(N)=O)NC(=O)[C@H](CCC(N)=O)NC(=O)[C@H](Cc3ccccc3)NC(=O)[C@H](C)NC(=O)[C@H](C)NC(=O)[C@H](CCC(=O)O)NC(=O)[C@H](CC(=O)O)NC1=O)NC(=O)[C@H](C)NC(=O)[C@H](CC(=O)O)NC2=O (stereo partly drawn) [I-419, Ac-PL3-Asp-Ala-B5-Asp-Glu-Ala-Ala-Phe-Gln-S8-Phe-BztA-His-NH2]
9 | 2.13 | 154 | – | – | CC(=O)N1CCC[C@]12CC=CCCCC1(CCCC=CCCCCCC[C@@](C)(C(=O)N[C@@H](Cc3cccc(F)c3)C(=O)N[C@@H](Cc3csc4ccccc34)C(=O)N[C@@H](Cc3c[nH]cn3)C(N)=O)NC(=O)[C@H](CCC(N)=O)NC(=O)[C@H](Cc3ccsc3)NC(=O)[C@H](C)NC(=O)[C@H](C)NC(=O)[C@H](CCC(=O)O)NC(=O)[C@H](CC(=O)O)NC1=O)NC(=O)[C@H](C)NC(=O)[C@H](CC(=O)O)NC2=O (stereo partly drawn) [I-430, Ac-PL3-Asp-Ala-B5-Asp-Glu-Ala-Ala-3Thi-Gln-S8-3FF-BztA-His-NH2]
10 | 2.05 | 125 | – | – | CC(=O)N1CCC[C@]12CC=CCCCC1(CCCC=CCCCCCC[C@@](C)(C(=O)N[C@@H](Cc3ccccc3)C(=O)N[C@@H](Cc3csc4ccccc34)C(=O)N[C@@H](CCC(N)=O)C(N)=O)NC(=O)[C@H](CC(N)=O)NC(=O)[C@H](Cc3cccc(F)c3)NC(=O)[C@H](C)NC(=O)[C@H](C)NC(=O)[C@H](CCC(=O)O)NC(=O)[C@H](CC(=O)O)NC1=O)NC(=O)[C@H](C)NC(=O)[C@H](CC(=O)O)NC2=O (stereo partly drawn) [I-454, Ac-PL3-Asp-Ala-B5-Asp-Glu-Ala-Ala-3FF-Asn-S8-Phe-BztA-Gln-NH2]
11 | 2.04 | 83.5 | – | – | CC(=O)N1CCC[C@]12CC=CCCCC1(CCCC=CCCCCCC[C@@](C)(C(=O)N[C@@H](Cc3ccccc3)C(=O)N[C@@H](Cc3csc4ccccc34)C(=O)N[C@@H](CCC(N)=O)C(N)=O)NC(=O)[C@H](CC(N)=O)NC(=O)[C@H](Cc3ccc(F)cc3)NC(=O)[C@H](C)NC(=O)[C@H](C)NC(=O)[C@H](CCC(=O)O)NC(=O)[C@H](CC(=O)O)NC1=O)NC(=O)[C@H](C)NC(=O)[C@H](CC(=O)O)NC2=O (stereo partly drawn) [I-455, Ac-PL3-Asp-Ala-B5-Asp-Glu-Ala-Ala-4FF-Asn-S8-Phe-BztA-Gln-NH2]
12 | 2.07 | 102 | – | – | CC(=O)N1CCC[C@]12CC=CCCCC1(CCCC=CCCCCCC[C@@](C)(C(=O)N[C@@H](Cc3ccccc3)C(=O)N[C@@H](Cc3csc4ccccc34)C(=O)N[C@@H](CCC(N)=O)C(N)=O)NC(=O)[C@H](CC(N)=O)NC(=O)[C@H](Cc3cccc(C)c3)NC(=O)[C@H](C)NC(=O)[C@H](C)NC(=O)[C@H](CCC(=O)O)NC(=O)[C@H](CC(=O)O)NC1=O)NC(=O)[C@H](C)NC(=O)[C@H](CC(=O)O)NC2=O (stereo partly drawn) [I-458, Ac-PL3-Asp-Ala-B5-Asp-Glu-Ala-Ala-3MeF-Asn-S8-Phe-BztA-Gln-NH2]
13 | 1.94 | 125 | – | – | CC(=O)N1CCC[C@]12CC=CCCCC1(CCCC=CCCCCCC[C@@](C)(C(=O)N[C@@H](Cc3ccccc3)C(=O)N[C@@H](Cc3csc4ccccc34)C(=O)N[C@@H](CCC(N)=O)C(N)=O)NC(=O)[C@H](CC(N)=O)NC(=O)[C@H](Cc3ccc(N)cc3)NC(=O)[C@H](C)NC(=O)[C@H](C)NC(=O)[C@H](CCC(=O)O)NC(=O)[C@H](CC(=O)O)NC1=O)NC(=O)[C@H](C)NC(=O)[C@H](CC(=O)O)NC2=O (stereo partly drawn) [I-461, Ac-PL3-Asp-Ala-B5-Asp-Glu-Ala-Ala-4AmPhe-Asn-S8-Phe-BztA-Gln-NH2]
14 | – | 92 | 1.785 | 92 | CC(=O)N1CCC[C@]12CC=CCCCC1(CCCC=CCCCCOC(=O)N3CC[C@@](C(=O)N[C@@H](Cc4ccccc4)C(=O)N[C@@H](Cc4csc5ccccc45)C(=O)N[C@@H](CCC(N)=O)C(N)=O)(C3)NC(=O)[C@H](CC(N)=O)NC(=O)[C@H](Cc3ccccc3)NC(=O)[C@H](C)NC(=O)[C@H](C)NC(=O)[C@H](CCC(=O)O)NC(=O)[C@H](CC(=O)O)NC1=O)NC(=O)[C@H](C)NC(=O)[C@H](CC(=O)O)NC2=O (stereo partly drawn) [I-463, Ac-PL3-Asp-Ala-B5-Asp-Glu-Ala-Ala-Phe-Asn-PyrS3-Phe-BztA-Gln-NH2]
